Experimental data from ChEMBL document CHEMBL1138241, “First gallamine-tacrine hybrid: design and characterization at cholinesterases and the M2 muscarinic receptor” (J Med Chem, 2007).

Columns and labels:
Acetylcholinesterase [1] = target: Acetylcholinesterase (Torpedo californica, UniProt P04058)
Description: Inhibition of Torpedo californica Acetylcholinesterase

[2] = target: T1, Muscarinic acetylcholine receptor M2 (Sus scrofa, UniProt P06199)
T1 sequence (P06199 whole entry): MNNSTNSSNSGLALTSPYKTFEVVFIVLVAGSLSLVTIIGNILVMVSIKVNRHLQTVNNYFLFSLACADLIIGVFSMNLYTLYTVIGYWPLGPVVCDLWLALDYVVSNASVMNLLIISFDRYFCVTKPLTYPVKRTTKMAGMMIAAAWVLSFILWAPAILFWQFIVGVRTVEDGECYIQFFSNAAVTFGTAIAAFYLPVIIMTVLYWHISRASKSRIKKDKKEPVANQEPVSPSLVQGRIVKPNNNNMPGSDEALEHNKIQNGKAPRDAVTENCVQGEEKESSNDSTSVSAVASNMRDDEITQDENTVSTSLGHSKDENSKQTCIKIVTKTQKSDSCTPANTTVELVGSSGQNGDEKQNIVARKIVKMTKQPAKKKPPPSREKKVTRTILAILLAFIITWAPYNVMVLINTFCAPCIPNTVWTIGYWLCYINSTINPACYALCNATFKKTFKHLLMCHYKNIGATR
Description: Inhibition of [3H]NMS dissociation from porcine muscarinic M2 receptor

Acetylcholinesterase [3] = target: Acetylcholinesterase (Electrophorus electricus, UniProt O42275)
Description: Inhibition of Electrophorus electricus Acetylcholinesterase

Acetylcholinesterase [4] = target: Acetylcholinesterase (Homo sapiens, UniProt P22303)
Acetylcholinesterase (Homo sapiens, UniProt P22303), sequence (P22303 whole entry): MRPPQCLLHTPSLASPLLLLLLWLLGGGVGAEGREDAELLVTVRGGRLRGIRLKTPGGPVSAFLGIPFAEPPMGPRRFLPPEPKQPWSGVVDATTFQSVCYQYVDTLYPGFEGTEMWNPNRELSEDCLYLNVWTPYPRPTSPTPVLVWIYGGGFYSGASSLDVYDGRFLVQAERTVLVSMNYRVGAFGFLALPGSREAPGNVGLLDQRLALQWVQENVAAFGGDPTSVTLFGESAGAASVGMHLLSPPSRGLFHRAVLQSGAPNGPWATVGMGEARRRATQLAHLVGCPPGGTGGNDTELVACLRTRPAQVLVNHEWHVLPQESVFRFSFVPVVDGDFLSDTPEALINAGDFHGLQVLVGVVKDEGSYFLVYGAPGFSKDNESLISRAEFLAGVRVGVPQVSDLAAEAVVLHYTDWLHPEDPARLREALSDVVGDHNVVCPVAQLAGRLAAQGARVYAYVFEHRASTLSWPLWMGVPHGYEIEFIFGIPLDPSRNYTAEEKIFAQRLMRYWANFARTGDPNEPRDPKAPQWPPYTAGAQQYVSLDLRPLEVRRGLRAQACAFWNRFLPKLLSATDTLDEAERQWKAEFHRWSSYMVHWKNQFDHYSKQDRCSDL
Description: Inhibition of human Acetylcholinesterase

Acetylcholinesterase (Torpedo californica, UniProt P04058), sequence (P04058 whole entry): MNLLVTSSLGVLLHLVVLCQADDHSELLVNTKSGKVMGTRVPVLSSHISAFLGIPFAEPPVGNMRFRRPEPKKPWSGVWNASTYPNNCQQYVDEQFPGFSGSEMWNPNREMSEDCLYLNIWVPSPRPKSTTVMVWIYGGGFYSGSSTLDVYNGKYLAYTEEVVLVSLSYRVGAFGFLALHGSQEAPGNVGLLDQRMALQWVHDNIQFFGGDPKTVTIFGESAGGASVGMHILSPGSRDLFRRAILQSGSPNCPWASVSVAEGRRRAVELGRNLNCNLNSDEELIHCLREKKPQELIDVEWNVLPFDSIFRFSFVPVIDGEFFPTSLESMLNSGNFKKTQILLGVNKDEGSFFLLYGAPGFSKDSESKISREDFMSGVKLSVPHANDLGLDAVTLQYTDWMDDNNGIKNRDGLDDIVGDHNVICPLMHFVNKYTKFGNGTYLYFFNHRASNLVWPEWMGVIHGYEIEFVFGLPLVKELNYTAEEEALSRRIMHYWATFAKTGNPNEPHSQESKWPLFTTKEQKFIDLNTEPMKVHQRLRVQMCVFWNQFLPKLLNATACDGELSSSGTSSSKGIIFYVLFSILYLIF
Acetylcholinesterase (Electrophorus electricus, UniProt O42275), sequence (O42275 whole entry): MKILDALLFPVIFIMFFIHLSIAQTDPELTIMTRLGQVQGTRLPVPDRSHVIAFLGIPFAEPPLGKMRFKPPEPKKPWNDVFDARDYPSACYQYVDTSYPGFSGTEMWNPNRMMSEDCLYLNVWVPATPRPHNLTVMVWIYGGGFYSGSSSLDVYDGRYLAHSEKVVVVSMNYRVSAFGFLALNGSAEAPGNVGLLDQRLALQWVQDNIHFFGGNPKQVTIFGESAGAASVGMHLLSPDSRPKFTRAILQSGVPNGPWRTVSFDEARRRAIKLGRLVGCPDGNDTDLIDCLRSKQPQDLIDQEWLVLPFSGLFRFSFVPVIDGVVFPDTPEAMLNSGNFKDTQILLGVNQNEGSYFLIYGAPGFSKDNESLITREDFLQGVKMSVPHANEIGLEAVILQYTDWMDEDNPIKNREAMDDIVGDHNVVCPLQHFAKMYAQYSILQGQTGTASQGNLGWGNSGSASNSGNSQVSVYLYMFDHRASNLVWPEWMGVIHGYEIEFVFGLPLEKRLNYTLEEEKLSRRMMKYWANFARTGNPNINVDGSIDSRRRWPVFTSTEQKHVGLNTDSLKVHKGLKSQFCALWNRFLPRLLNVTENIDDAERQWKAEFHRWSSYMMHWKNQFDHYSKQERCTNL

| SMILES | IC50 (Acetylcholinesterase [1]) [µM] | EC50 [2] [µM] | IC50 (Acetylcholinesterase [3]) [µM] | IC50 (Acetylcholinesterase [4]) [µM] |
| --- | --- | --- | --- | --- |
| CC[N+](CC)(CC)CCOc1cc(OCC[N+](CC)(CC)CC)c(C(=O)NCCCCCC(=O)NNc2c3c(nc4ccccc24)CCCC3)cc1OCC[N+](CC)(CC)CC | 0.0277 | 0.0014 | – | – |
| CC[N+](CC)(CC)CCOc1ccc(C(=O)NCCCCCC(=O)NNc2c3c(nc4ccccc24)CCCC3)cc1 | 0.0176 | 0.0013 | 0.000467 | 0.00761 |
| CC[N+](CC)(CC)CCOc1cc(OCC[N+](CC)(CC)CC)cc(C(=O)NCCCCCC(=O)NNc2c3c(nc4ccccc24)CCCC3)c1 | 0.00859 | 0.0009 | 0.00128 | 0.0158 |
| CC[N+](CC)(CC)CCOc1ccc(C(=O)NCCCCCC(=O)NNc2c3c(nc4cc(Cl)ccc24)CCCC3)cc1 | 0.127 | 0.005 | 0.026 | 0.00544 |
| CC[N+](CC)(CC)CCOc1cc(OCC[N+](CC)(CC)CC)cc(C(=O)NCCCCCC(=O)NNc2c3c(nc4cc(Cl)ccc24)CCCC3)c1 | 0.301 | 0.0015 | 0.048 | 0.00675 |
| CC[N+](CC)(CC)CCOc1cc(OCC[N+](CC)(CC)CC)c(C(=O)NCCCCCC(=O)NNc2c3c(nc4cc(Cl)ccc24)CCCC3)cc1OCC[N+](CC)(CC)CC | 0.334 | 0.001 | 0.09 | 0.00654 |
| CC[N+](CC)(CC)CCOc1cccc(OCC[N+](CC)(CC)CC)c1OCC[N+](CC)(CC)CC [GALLAMINE] | – | 0.13 | 3150 | 2110 |
